Results published in ChEMBL document CHEMBL4507265 (2021).

Columns and labels:
Details in all cases: Compound concentration 10.0 uM
[1] = target: T1, 5-hydroxytryptamine receptor 1A (Homo sapiens) (UniProt P08908)
T1 sequence (whole entry): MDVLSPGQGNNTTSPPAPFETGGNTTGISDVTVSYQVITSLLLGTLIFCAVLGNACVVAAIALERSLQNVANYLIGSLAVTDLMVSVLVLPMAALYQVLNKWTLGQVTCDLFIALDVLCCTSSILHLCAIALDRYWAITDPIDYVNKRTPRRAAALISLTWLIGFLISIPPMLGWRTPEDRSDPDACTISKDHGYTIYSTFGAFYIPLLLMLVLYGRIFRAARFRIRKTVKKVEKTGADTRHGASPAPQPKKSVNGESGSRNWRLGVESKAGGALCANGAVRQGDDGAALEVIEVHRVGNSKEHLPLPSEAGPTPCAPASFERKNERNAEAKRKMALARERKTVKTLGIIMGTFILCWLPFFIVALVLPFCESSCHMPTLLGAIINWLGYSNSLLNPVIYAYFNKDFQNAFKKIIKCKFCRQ

[2] = target: Estrogen receptor (Homo sapiens) (UniProt P03372)
[3] = target: Purinergic P2Y (Rattus norvegicus) (UniProt O35811+Q9EPX4+P49651+Q63371+P41232+O35881+Q6GUG4)
[4] = species: Rattus norvegicus; assay: Inhibition of Glutamate, NMDA, Phencyclidine at 10 µM in the Eurofins-Panlabs radioligand binding assay (Eurofins_assay_233000); type: protein-complex assay
[5] = species: Rattus norvegicus; assay: Inhibition of Thyroid Hormone at 10 µM in the Eurofins-Panlabs radioligand binding assay (Eurofins_assay_285900); type: protein assay

Measured: inhibition

Chain of Estrogen receptor (Homo sapiens) (P03372 whole entry): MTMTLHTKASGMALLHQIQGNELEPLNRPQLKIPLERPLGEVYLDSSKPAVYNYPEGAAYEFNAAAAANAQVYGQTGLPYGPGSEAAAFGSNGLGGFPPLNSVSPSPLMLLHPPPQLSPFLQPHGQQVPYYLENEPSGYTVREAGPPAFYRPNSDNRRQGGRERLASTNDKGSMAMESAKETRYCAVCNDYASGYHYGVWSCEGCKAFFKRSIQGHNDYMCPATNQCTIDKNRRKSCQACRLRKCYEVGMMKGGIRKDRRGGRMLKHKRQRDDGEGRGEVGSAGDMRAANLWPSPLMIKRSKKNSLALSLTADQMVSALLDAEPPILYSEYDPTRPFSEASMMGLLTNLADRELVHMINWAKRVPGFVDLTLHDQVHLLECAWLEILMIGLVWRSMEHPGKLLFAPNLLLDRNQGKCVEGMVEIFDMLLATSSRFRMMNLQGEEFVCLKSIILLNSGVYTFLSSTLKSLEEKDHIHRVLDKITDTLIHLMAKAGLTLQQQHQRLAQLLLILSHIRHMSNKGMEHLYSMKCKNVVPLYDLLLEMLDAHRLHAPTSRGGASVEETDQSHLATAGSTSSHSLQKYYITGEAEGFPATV

NS(=O)(=O)c1cc(NC(=O)Cc2ccccc2)ccc1Oc1cccc(Cl)c1 [BAY-1797]
inactive: [1] 7% | [2] 5% | [3] 14% | [4] -1% | [5] 2%
